From ChEMBL document CHEMBL1135026, “Synthesis of fluorescent biochemical tools related to the 2-azetidinone class of cholesterol absorption inhibitors” (2002)

Assays:
Assay type in all cases: functional
Rattus norvegicus [1] = assay: Percent inhibition of 14C]cholesterol absorption into plasma using cholesterol absorption assay in rats at the dose of 30 ug/Kg
Rattus norvegicus [2] = assay: Percent inhibition of 14C]cholesterol absorption into plasma using cholesterol absorption assay in rats at the dose of 186 ug/Kg
Rattus norvegicus [3] = assay: Percent inhibition of 14C]cholesterol absorption into plasma using cholesterol absorption assay in rats at the dose of 56 ug/Kg
Rattus norvegicus [4] = assay: Percent inhibition of 14C]cholesterol absorption into plasma using cholesterol absorption assay in rats at the dose of 2000 ug/Kg
Rattus norvegicus [5] = assay: Percent inhibition of 14C]cholesterol absorption into plasma using cholesterol absorption assay in rats at the dose of 100 ug/Kg
Rattus norvegicus [6] = assay: Percent inhibition of 14C]cholesterol absorption into plasma using cholesterol absorption assay in rats at the dose of 300 ug/Kg
Rattus norvegicus [7] = assay: Percent inhibition of 14C]cholesterol absorption into plasma using cholesterol absorption assay in rats at the dose of 10 ug/Kg
Rattus norvegicus [8] = species: Rattus norvegicus; assay: Compound was tested for cholesterol absorption inhibition in rats by bolus injection 1 mL) via the intestinal catheter into the small intestine, by cholesterol absorption assay; conditions: read-out: ID50 (the source's name)
Rattus norvegicus [9] = assay: Percent inhibition of 14C]cholesterol absorption into plasma using cholesterol absorption assay in rats at the dose of 3 ug/Kg

| SMILES | inhibition in vivo at 0.03 mg/kg (Rattus norvegicus [1]) [%] | inhibition in vivo at 0.1 mg/kg (Rattus norvegicus [5]) [%] | inhibition in vivo at 0.01 mg/kg (Rattus norvegicus [7]) [%] | further results |
| --- | --- | --- | --- | --- |
| O=C(CCCCCNC(=O)c1ccc(-c2c3ccc(=O)cc-3oc3cc(O)ccc23)c(C(=O)O)c1)NCC#Cc1ccc(N2C(=O)[C@H](CC[C@H](O)c3ccc(F)cc3)[C@H]2c2ccc(O[C@@H]3O[C@H](C(=O)O)[C@@H](O)[C@H](O)[C@H]3O)cc2)cc1 | 85 | – | – | inhibition in vivo at 0.186 mg/kg (Rattus norvegicus [2]): 88%; inhibition in vivo at 0.056 mg/kg (Rattus norvegicus [3]): 79% |
| COc1ccc([C@@H]2[C@@H](CCCc3ccccc3)C(=O)N2c2ccc(OC)cc2)cc1 [SCH-48461] | – | – | – | inhibition in vivo at 2 mg/kg (Rattus norvegicus [4]): 95% |
| Cc1cc(C)n(B(F)F)c1/C=C1/C=CC(CCC(=O)NCC#Cc2ccc(N3C(=O)[C@H](CC[C@H](O)c4ccc(F)cc4)[C@H]3c3ccc(O[C@@H]4O[C@H](C(=O)O)[C@@H](O)[C@H](O)[C@H]4O)cc3)cc2)=N1 | 58 | 80 | – | inhibition in vivo at 0.3 mg/kg (Rattus norvegicus [6]): 92% |
| O=C(O)[C@H]1O[C@@H](Oc2ccc([C@@H]3[C@@H](CC[C@H](O)c4ccc(F)cc4)C(=O)N3c3cccc4nsnc34)cc2)[C@H](O)[C@@H](O)[C@@H]1O | 83 | 85 | 66 | – |
| O=C1[C@H](CC[C@H](O)c2ccc(F)cc2)[C@@H](c2ccc(O)cc2)N1c1ccc(F)cc1 [EZETIMIBE] | – | – | 74 | ED50 (Rattus norvegicus [8]): 1.6 µg/kg; inhibition in vivo at 0.003 mg/kg (Rattus norvegicus [9]): 63% |
| O=C(O)[C@H]1O[C@@H](Oc2ccc([C@@H]3[C@@H](CC[C@H](O)c4ccc(F)cc4)C(=O)N3c3ccc(F)cc3)cc2)[C@H](O)[C@@H](O)[C@@H]1O | – | – | 91 | – |
